From patent publication US20090087845A1, “Genetic Markers Of True Low Birth Weight” (priority 2005, published 2009)
Where “and” joins values, the source holds several entries; their conditions need not be identical. Identical values can stand only once.

System: placental gene expression
Test: Placental gene expression (Affymetrix Rat Genome Chip 230.2) after SSRI (fluoxetine) exposure throughout gestation
Format: in vivo
Conditions: SSRI exposure during gestation
Method: Gene expression data from pregnant rats under different forms of dietary restriction was gathered. […] (N=8) • Group 2 (CR50): Rats Given 50% of their Normal Daily Intake of Food. (N=5) • Group 3 (CR70): Rats Given 70% of their Normal Daily Intake of Food. […] (N=6) Placentas from the rats of each Group were harvested on Day 21 of gestation. RNA was extracted and gene expression was measured based on hybridization of RNA to Affymetrix Rat Genome Chips™ (230.2) (Affymetrix, Santa Clara, Calif.).
In order to determine whether placental gene expression profiling can be used to identify other prenatal exposures such as toxicants and drugs, a group of rats with drug exposure was monitored as described above. […] As with control, CR50, CR70, and HF groups, placentas from the mothers were sampled after 21 days of gestation and gene expression monitored utilizing an Affymetrix Rat Genome Chip.

SMILES: CNCCC(Oc1ccc(C(F)(F)F)cc1)c1ccccc1 (stereo not shown) [fluoxetine, Fluoxetine]
- Probeset 1367856_at expression: 9.227 and 9.529 and 9.365 and 9.385 and 9.39 and 9.762
- Probeset 1367877_at expression: 10.9 and 11 and 11.21 and 11.25 and 10.7225 and 10.35
- Probeset 1368083_at expression: 8.132 and 7.967 and 8.206 and 8.272 and 8.391 and 8.145
- Probeset 1368824_at expression: 8.826 and 8.855 and 9.531 and 9.13 and 8.806 and 9.976
- Probeset 1369754_a_at expression: 8.0392 and 8.245 and 7.92 and 7.959 and 8 and 8.033
- Probeset 1369775_at expression: 8.114 and 8.469 and 8.777 and 8.329 and 7.897 and 9.185
- Probeset 1370293_at expression: 5.003 and 5.146 and 4.947 and 4.866 and 4.888 and 5.155
- Probeset 1370317_at expression: 8.087 and 8.102 and 8.255 and 8.308 and 8.15 and 8.491
- Probeset 1370521_at expression: 8.446 and 8.335 and 8.321 and 8.443 and 8.486 and 8.352
- Probeset 1370682_at expression: 5.234 and 5.326 and 5.095 and 5.171 and 5.242 and 5.482
- Probeset 1370766_at expression: 4.942 and 4.938 and 5.166 and 5.489 and 5.322 and 4.712
- Probeset 1370918_a_at expression: 11.31 and 11.2792 and 11.25 and 11.37 and 11.45 and 11.49
- Probeset 1370983_at expression: 5.843
- Probeset 1371435_at expression: 11.01 and 10.91 and 11.23 and 11.08 and 10.99 and 11.27
- Probeset 1372141_at expression: 9.139 and 9.134 and 9.292 and 9.347 and 9.239 and 9.295
- Probeset 1373319_at expression: 9.055 and 9.237 and 9.183 and 9.332 and 9.182 and 9.352
- Probeset 1373396_at expression: 9.155 and 8.864 and 9.203 and 9.102 and 8.933 and 8.366
- Probeset 1373572_at expression: 7.868 and 7.822 and 7.63 and 7.991 and 8.104 and 8.161
- Probeset 1373647_at expression: 8.371 and 8.23 and 8.672 and 8.447 and 8.268 and 8.235
- Probeset 1373702_at expression: 8.332 and 8.305 and 8.162 and 8.514 and 8.322 and 7.814
- Probeset 1373804_at expression: 6.825 (2×) and 6.702 and 7.208 and 7.238 and 7.527
- Probeset 1374112_at expression: 6.448 and 6.479 and 6.686 and 6.529 and 6.5 and 6.601
- Probeset 1374739_at expression: 8.91 and 8.84 and 9.07 and 9.074 and 8.858 and 8.669
- Probeset 1375178_at expression: 5.861 and 5.694 and 5.836 and 5.574 and 5.873 and 5.942
- Probeset 1375407_at expression: 4.147 and 4.198 and 4.162 and 4.179 and 4.18 and 4.21
- Probeset 1376294_at expression: 8.241 and 8.136 and 8.122 and 8.206 and 8.031 and 7.939
- Probeset 1376622_at expression: 9.179 and 9.106 and 9.158 and 9.007 and 8.828 and 8.85
- Probeset 1376661_at expression: 9.243 and 8.93 and 9.166 and 9.213 and 9.04 and 8.674
- Probeset 1377210_at expression: 5.248 and 4.863 and 5.701 and 5.485 and 5.015 and 5.172
- Probeset 1377365_at expression: 4.943 and 5.014 and 4.818 and 5.177 and 5.084 and 4.987
- Probeset 1377621_at expression: 9.058 and 9.148 and 9.272 and 8.936 and 8.844 and 9.114
- Probeset 1377746_at expression: 6.748 and 6.563 and 6.855 and 6.829 and 6.772 and 6.746
- Probeset 1378200_at expression: 3.497 and 3.656 and 3.453 and 3.611 and 3.537 and 3.653
- Probeset 1378318_at expression: 7.345 and 7.18 and 7.153 and 7.373 and 7.289 and 7.671
- Probeset 1378906_at expression: 4.061 and 4.197 and 4.196 and 4.263 and 4.048 and 4.099
- Probeset 1378992_at expression: 3.715 and 3.63 and 3.611 and 3.744 and 3.567 and 3.655
- Probeset 1379691_at expression: 5.195 and 5.15 and 5.65 and 5.355 and 5.021 and 5.425
- Probeset 1379822_at expression: 4.426 and 4.487 and 4.337 and 4.483 and 4.602 and 4.654
- Probeset 1379827_at expression: 7.363 and 6.823 and 7.052 and 7.077 and 7.08 and 7.626
- Probeset 1379963_at expression: 6.946 and 6.646 and 6.73 and 6.72 and 6.71 and 6.95
- Probeset 1380175_at expression: 5.161 (2×) and 4.962 and 5.291 and 5.16 and 5.03
- Probeset 1380454_at expression: 6.241 and 5.984 and 6.009 and 5.948 and 5.974 and 6.055
- Probeset 1380887_at expression: 4.924
- Probeset 1381074_at expression: 4.46 and 4.412
- Probeset 1381130_at expression: 3.907 and 4.131 and 4.062 and 4.007 and 3.997 and 4.159
- Probeset 1381286_at expression: 5.782 and 5.606 and 5.685 and 5.499 and 5.475 and 5.605
- Probeset 1381456_at expression: 5.51 and 5.294 and 5.392 and 5.362 and 5.479 and 5.538
- Probeset 1381492_at expression: 3.395 and 3.359 and 3.315 and 3.411 and 3.371 and 3.465
- Probeset 1381950_at expression: 3.272 and 3.248 and 3.336 and 3.304 and 3.319 and 3.328
- Probeset 1382156_at expression: 4.657 and 4.812 and 4.826 and 4.712 and 4.874 and 4.952
- Probeset 1382513_at expression: 6.674 and 6.665 and 6.481 and 6.607 and 6.737 and 6.659
- Probeset 1382670_at expression: 8.608 and 8.307 and 8.399 and 8.688 and 8.346 and 8.2197
- Probeset 1383054_at expression: 8.808 and 9.017 and 9.07 and 8.991 and 8.711 and 9.326
- Probeset 1383300_at expression: 8.006 and 8.007 and 8.362 and 8.2749 and 8.022 and 8.359
- Probeset 1383309_at expression: 8.849 and 8.69 and 8.969 and 8.891 and 8.934 and 8.618
- Probeset 1383329_at expression: 5.895 and 5.614 and 5.92 and 5.669 and 5.593 and 5.826
- Probeset 1383443_at expression: 5.684 and 5.567 and 5.755 and 5.468 and 5.752 and 5.677
- Probeset 1383599_at expression: 8.081 and 7.626 and 7.843 and 7.829 and 8.127 and 9.642
- Probeset 1383670_at expression: 6.71 and 6.607 and 6.621 and 6.709 and 6.712 and 7.383
- Probeset 1384367_at expression: 5.722 and 5.628 and 5.604 and 6.025 and 5.735 and 5.669
- Probeset 1384528_at expression: 6.295 and 6.64 and 6.851 and 6.656 and 6.5 and 7.042
- Probeset 1384573_at expression: 8.901 and 8.97 and 9.056 and 9.081 and 8.766 and 9.188
- Probeset 1384849_at expression: 4.389 and 4.321 and 4.282 and 4.323 and 4.508 and 4.489
- Probeset 1385074_at expression: 5.671 and 5.563 and 5.768 and 5.526 and 5.195 and 5.636
- Probeset 1385113_at expression: 7.347 and 7.428 and 7.301 and 7.161 and 7.417 and 7.088
- Probeset 1385137_at expression: 6.487 and 6.691 and 6.525 and 6.507 and 6.657 and 6.515
- Probeset 1385290_at expression: 5.912 and 5.666 and 5.934 and 5.765 and 5.855 and 6.05
- Probeset 1385386_at expression: 3.88 and 3.887 and 3.724 and 3.939 and 3.964 and 3.997
- Probeset 1385391_at expression: 3.906
- Probeset 1385676_at expression: 7.767 and 7.784 and 7.6 and 7.923 and 7.825 and 7.957
- Probeset 1385790_at expression: 8.874 and 8.703 and 8.936 and 8.711 and 8.797 and 8.832
- Probeset 1385967_at expression: 7.8281 and 7.604 and 7.783 and 7.853 and 7.739 and 7.587
- Probeset 1386125_at expression: 6.722 and 6.815 and 6.394 and 6.647 and 6.915 and 6.555
- Probeset 1387136_at expression: 6.858 and 6.879 and 6.716 and 6.836 and 6.917 and 6.91
- Probeset 1387693_a_at expression: 6.346 and 5.564 and 5.898 and 6.298 and 6.19 and 6.092
- Probeset 1387694_at expression: 4.568 (2×) and 4.709 and 4.717 and 4.669 and 4.592
- Probeset 1387822_at expression: 6.542 and 6.446 and 6.117 and 6.626 and 6.634 and 6.309
- Probeset 1387836_at expression: 6.084 and 6.195 and 5.76 and 6.333 and 6.223 and 6.427
- Probeset 1387914_at expression: 7.114 and 7.095 and 6.97 and 7.203 and 7.171 and 6.743
- Probeset 1388091_at expression: 4.883 and 4.896 and 4.86 and 4.66 and 4.763 and 5.101
- Probeset 1388131_at expression: 5.883 and 5.853 (2×) and 5.899 and 5.7 and 5.653
- Probeset 1388363_at expression: 8.334 and 8.137 and 8.387 and 8.484 and 8.155 and 8.23
- Probeset 1388396_at expression: 8.583 and 8.468 and 8.633 and 8.876 and 8.642 and 8.158
- Probeset 1388669_at expression: 7.593 and 7.653 and 7.716 and 7.739 and 7.557 and 7.506
- Probeset 1389095_at expression: 4.796 and 4.404 and 4.732 and 4.907 and 5.027 and 4.473
- Probeset 1389213_at expression: 8.131 and 8.028 and 7.745 and 7.914 and 8.246 and 8.135
- Probeset 1389599_at expression: 7.15 and 6.872 and 6.834 and 7.063 and 7.294 and 6.817
- Probeset 1389938_at expression: 3.471 and 3.408 and 3.488 and 3.5 and 3.516 and 3.49
- Probeset 1390406_at expression: 10.34 and 10.3557 and 10.5 and 10.19 and 10.46 and 10.31
- Probeset 1390477_at expression: 5.455 and 5.297 and 5.408 and 5.153 and 5.575 and 5.333
- Probeset 1390592_at expression: 7.922 and 8.042 and 8.388 and 8.1 and 7.908 and 8.783
- Probeset 1390603_at expression: 7.171 and 7.008 and 7.6 and 6.976 and 7.243 and 7.286
- Probeset 1390649_at expression: 7.938 and 7.688 and 7.673 and 7.791 and 7.858 and 7.491
- Probeset 1390892_at expression: 5.596 and 5.604 and 5.507 and 5.408 and 5.571 and 5.5082
- Probeset 1391078_at expression: 8.106 and 8.271 and 8.74 and 8.604 and 8.221 and 9.079
- Probeset 1391283_at expression: 5.834 and 5.874 and 5.96 and 5.702 and 5.598 and 5.898
- Probeset 1391376_at expression: 7.65 and 7.982 and 7.683 and 7.518 and 7.491 and 7.602
